Measurements taken from PMC3549271 (ACS medicinal chemistry letters, 2012).

Columns and labels:
[1] = target: T1, human A1 adenosine receptor (hA1AR) (Homo sapiens, UniProt P30542); test: radioligand binding assay at human A1AR; conditions: read-out: % inhibition at 10μM A1
T1 sequence (P30542 1-326): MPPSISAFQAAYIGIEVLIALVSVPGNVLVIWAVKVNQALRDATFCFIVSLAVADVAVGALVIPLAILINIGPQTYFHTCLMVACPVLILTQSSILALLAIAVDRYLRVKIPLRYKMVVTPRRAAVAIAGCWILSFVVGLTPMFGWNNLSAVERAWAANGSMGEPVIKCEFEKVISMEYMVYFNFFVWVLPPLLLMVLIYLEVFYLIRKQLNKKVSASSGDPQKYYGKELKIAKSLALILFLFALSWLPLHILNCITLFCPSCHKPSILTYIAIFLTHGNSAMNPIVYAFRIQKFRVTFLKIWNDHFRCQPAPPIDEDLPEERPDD

[2] = target: human A2A adenosine receptor (hA2AAR) (Homo sapiens, UniProt P29274); test: radioligand binding assay at human A2AAR; conditions: free energy of binding divided by the number of heavy atoms
Chain of human A2A adenosine receptor (hA2AAR) (P29274 whole entry): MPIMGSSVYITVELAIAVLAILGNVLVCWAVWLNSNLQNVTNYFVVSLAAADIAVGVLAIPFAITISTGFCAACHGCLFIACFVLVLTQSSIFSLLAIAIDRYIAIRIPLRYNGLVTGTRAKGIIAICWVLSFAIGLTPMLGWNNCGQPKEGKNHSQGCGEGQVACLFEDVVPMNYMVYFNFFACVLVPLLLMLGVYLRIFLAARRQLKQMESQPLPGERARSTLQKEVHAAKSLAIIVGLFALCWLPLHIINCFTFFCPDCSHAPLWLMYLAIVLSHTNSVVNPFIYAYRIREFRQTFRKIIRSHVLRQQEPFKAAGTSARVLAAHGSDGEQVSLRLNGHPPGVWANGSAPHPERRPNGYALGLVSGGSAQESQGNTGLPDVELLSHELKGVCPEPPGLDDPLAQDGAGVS

[3] = target: T2, A2BAR (Homo sapiens, UniProt P29275); type: cell-based
T2 sequence (P29275 1-332): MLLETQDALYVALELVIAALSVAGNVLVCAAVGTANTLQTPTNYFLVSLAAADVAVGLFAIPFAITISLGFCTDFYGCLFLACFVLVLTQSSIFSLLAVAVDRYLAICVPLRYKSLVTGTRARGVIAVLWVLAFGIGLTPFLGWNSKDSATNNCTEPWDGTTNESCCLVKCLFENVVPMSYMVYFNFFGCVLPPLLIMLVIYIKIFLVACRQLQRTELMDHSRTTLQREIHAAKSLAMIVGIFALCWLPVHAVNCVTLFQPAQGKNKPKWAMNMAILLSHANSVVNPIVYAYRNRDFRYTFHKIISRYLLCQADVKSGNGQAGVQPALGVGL

inhibition at 10 µM [1] [%]	ligand efficiency (LE) [2]	% inhibition at 10μM A2B (inhibition of cAMP accumulation) ([3]; 10 μM compound, in the presence of 300 nM NECA, three independent experiments)	inhibition at 10 µM ([3]; read-out: % inhibition at 10μM A2B (inhibition of cAMP accumulation)) [%]	SMILES
19	0.34	no significant activity		Cc1cccc(O[C@H](C)C(=O)Nc2nc(-c3ccccc3)n[nH]2)c1 [Compound 1]
			-15	Cc1ccc(O[C@H](C)C(=O)Nc2nc(-c3ccco3)n[nH]2)cc1 [Compound 24]
	0.48			CCCC(=O)Nc1nc(-c2ccccc2)n[nH]1 [Compound 27]
	0.44			O=C(Nc1nc(-c2ccccc2)n[nH]1)c1ccccc1 [Compound 29]
	0.42			COc1ccccc1C(=O)Nc1nc(-c2ccccc2)n[nH]1 [Compound 32]
